How the values were obtained:
H460 cells [1] = test: Cytotoxic effect (cell survival rate, Prest Blue), H460; type: cell-based, human; settings: single agent treatment with 1.3 μmol/L, 6 hours (FIG. 12)
Experimental: (§1) A549 cells or H460 cells were seeded onto a 96-well culture plate (Corning) at 2×10^4/well, and then cultured at 37° C. under 5% carbon dioxide atmosphere in an incubator for 48 hours. […] After which, they were cultured in the presence or absence of a test compound (30 μmol/L of flufenamic acid, 100 μmol/L of flufenamic acid, or 100 μmol/L of mefenamic acid as a final concentration) for 6 hours, Prest Blue (Life Technologies) was added, and then incubated for 1 to 2 hours. After the incubation, absorbance at 570 nm was measured to evaluate the cytotoxicity. Absorbance of a well to which a cell had not been added (Ablank) is defined as the background, the cell survival rate was calculated using the following formula to divide a value obtained by multiplying 100 by a value obtained by subtracting the background absorbance from the absorbance of each well (Asample), by a value obtained by subtracting Ablank from the value (Acontrol) of a well in which a cell with no treatment with 2-acetylnaphtho[2,3-b]furan-4,9-dione or a metabolic inhibitor was contained.
(§2) Cell survival rate (%)=(Asample−Ablank)×100/(Acontrol−Ablank)

A549 cells [2] = test: Cytotoxic effect (cell survival rate, Prest Blue), A549; type: cell-based, human; settings: single agent treatment with 1.3 μmol/L, 6 hours (FIG. 12)
Experimental: as §1, §2

[3] = Metabolism measurement of 2-acetylnaphtho[2,3-b]furan-4,9-dione in human liver cytosol fractions; type: in vitro ADME; settings: [14C]-labeled compound 0.5 μmol/L, human liver cytosol 0.1 mg/mL, 37° C. (FIG. 7)
Experimental: A reaction solution obtained by dissolving a human liver cytosol (0.1 mg/mL) and NADPH (1 mmol/L) in a phosphate buffer solution was prepared. Into the reaction solution, [^14C]-labeled labeled 2-acetylnaphtho[2,3-b]furan-4,9-dione was added such that the dione concentration is 0.5 μmol/L, and thereby the reaction was started. After incubation at 37° C. for a given time, 0.1% formic acid-containing acetonitrile was added to terminate the reaction, and the mixture was centrifuged. After the supernatant was evaporated to dryness under a stream nitrogen gas, re-dissolving solvent [10 mmol/L ammonium acetate:acetonitrile, 9:1 (v/v)] was used to re-dissolve it, and then Radio-HPLC was used to measure radioactivity.

[4] = system: metabolism of 2-acetylnaphtho[2,3-b]furan-4,9-dione in human liver cytosol; test: Screening for an inhibitor of a metabolic enzyme (human liver cytosol, LC-MS/MS); type: biochemical; settings: test drug 10 μmol/L, substrate 0.5 μmol/L, 37° C., 5 minutes (FIG. 9)
Experimental: To a reaction solution obtained by dissolving a human liver cytosol (0.1 mg/mL) and NADPH (1 mmol/L) in a phosphate buffer solution, a test drug (10 μmol/L) was added. Then, 2-acetylnaphtho[2,3-b]furan-4,9-dione was added to be 0.5 μmol/L and thereby the reaction was started. After incubation at 37° C. for 5 minutes, 50 nmol/L phenytoin solution, which had been dissolved in 0.1% formic acid-containing acetonitrile, was added and the reaction was terminated. After centrifugation, the resulting supernatant was measured using LC-MS/MS to quantify the residual amount of 2-acetylnaphtho[2,3-b]furan-4,9-dione, and the inhibition intensity of the test drugs was evaluated by comparison with the control group.

A549 cells [5] = test: Intracellular concentration of 2-acetylnaphtho[2,3-b]furan-4,9-dione with a metabolic inhibitor, A549; type: cell-based, human; settings: 1.0 μmol/L dione with 30 or 100 μmol/L inhibitor, 2 hours (FIG. 11)
Experimental: (§3) A549 cells or H460 cells were seeded onto a 96-well culture plate (made by Corning Inc.) at 2×10^4/well, and then cultured at 37° C. under 5% carbon dioxide atmosphere in an incubator for 48 hours. After which, they were cultured for 2 hours with 2-acetylnaphtho[2,3-b]furan-4,9-dione in a final concentration of 1.0 μmol/L and in the presence or absence of 30 μmol/L or 100 μmol/L of mefenamic acid or flufenamic acid, and then washed with PBS. After that, 80% methanol was added to each well to obtain a cell lysate. The cell lysate was analyzed using LC-MS/MS to determine the intracellular concentration of 2-acetylnaphtho[2,3-b]furan-4,9-dione.

H460 cells [6] = test: Intracellular concentration of 2-acetylnaphtho[2,3-b]furan-4,9-dione with a metabolic inhibitor, H460; type: cell-based, human; settings: 1.0 μmol/L dione with 30 or 100 μmol/L inhibitor, 2 hours (FIG. 11)
Experimental: as §3

[7] = system: metabolism of 2-acetylnaphtho[2,3-b]furan-4,9-dione in human liver cytosol (AKR and CR); test: Identification of a metabolic enzyme of 2-acetylnaphtho[2,3-b]furan-4,9-dione (CR/AKR inhibitors in human liver cytosol); type: biochemical; settings: AKR inhibitor 1.0 μmol/L or 10 μmol/L, 5 minutes (FIG. 8)
Experimental: To a reaction solution obtained by dissolving a human liver cytosol (0.1 mg/mL) and NADPH (1 mmol/L) in a phosphate buffer solution, quercitrin (10 μmol/L or 100 μmol/L), which is a CR inhibitor, and phenolphthalein or medroxyprogesterone 17-acetate (1.0 μmol/L or 10 μmol/L), which is an AKR inhibitor, were added. Further, [^14C]-labeled 2-acetylnaphtho[2,3-b]furan-4,9-dione was added to the reaction solution such that the dione concentration is 0.5 μmol/L. After incubation at 37° C. for 5 minutes, Radio-HPLC was used to measure radioactivity.

A549 cells [8] = test: Anti-tumor effect in A549 tumor-bearing mice (tumor volume); type: in vivo, mouse; settings: tumor volume (FIG. 15)
Experimental: A549 cells of 5×10^6 per individual were transplanted to a right belly part of a 5 week aged mouse (BALB/cAnNCrlCrlj, male, Charles River Laboratories Japan, Inc.). After one week, the following administration solution (1), (2), (3), (4) or (5) was orally administered in a single time. (1) 100 mg/kg of mefenamic acid (2) 30 mg/kg of 2-acetylnaphtho[2,3-b]furan-4,9-dione (3) 100 mg/kg of 2-acetylnaphtho[2,3-b]furan-4,9-dione (4) 30 mg/kg of 2-acetylnaphtho[2,3-b]furan-4,9-dione and 100 mg/kg of mefenamic acid (5) 100 mg/kg of 2-acetylnaphtho[2,3-b]furan-4,9-dione and 100 mg/kg of mefenamic acid According to a schedule in which an administration solution or an administration solution without an agent was continuously administered for five days and then medication was ceased for two days and continuous administration for five days was carried out again, it was orally administered one time a day. The major axis and the minor axis of a tumor mass were measured by vernier calipers at 2 to 5 day intervals, and the tumor volume was calculated by substituting them into the formula: (minor axis)^2×(major axis)/2.

[9] = Concentration in plasma and tumor by combination with mefenamic acid in tumor-bearing mice; type: in vivo, mouse; settings: oral single dose
Experimental: The following administration solution (1), (2) or (3) was orally administered to 7 week aged mice (BALB/cAnNCrlCrlj, female, Charles River Laboratories Japan, Inc.) in a single time.
(1) 100 mg/kg of 2-acetylnaphtho[2,3-b]furan-4,9-dione
(2) 100 mg/kg of 2-acetylnaphtho[2,3-b]furan-4,9-dione and 100 mg/kg of mefenamic acid
(3) 100 mg/kg of 2-acetylnaphtho[2,3-b]furan-4,9-dione and 300 mg/kg of mefenamic acid
The blood was collected 2, 6, and 16 hours after the administration, and the blood was centrifuged to give plasma. Methanol was added to the plasma such that the final concentration of methanol is 80%, and then it was centrifuged. Further, protein-removing treatment was carried out by filtering through a filter, and then 2-acetylnaphtho[2,3-b]furan-4,9-dione was detected and quantified using LC-MS/MS (API4000, AB SCIEX). Meanwhile, a tumor mass was collected at the same time as the blood collection, 2-acetylnaphtho[2,3-b]furan-4,9-dione in the tumor was detected and quantified.

[10] = Concentration in plasma by combination with sulindac in cancer-bearing mice; type: in vivo, mouse; settings: oral single dose, 100 mg/kg dione with 25 mg/kg sulindac, two hours after administration (FIG. 14)
Experimental: The following administration solution (1) or (2) was orally administered to 8 week aged mice (BALB/cAnNCrlCrlj, female, Charles River Laboratories Japan, Inc.) in a single time. […] Methanol was added to the plasma such that the final concentration of methanol is 80%, and then it was centrifuged.

Row | inhibition of the metabolism of 2-acetylnaphtho[2,3-b]furan-4,9-dione (residual amount vs control) [4] | Compound | other results
1 | – | CC(=O)c1cc2c(o1)C(=O)c1ccccc1C2=O [2-acetylnaphtho[2,3-b]furan-4,9-dione] | cell survival rate (H460 cells [1]): ≥ 100%; cell survival rate (A549 cells [2]): ≥ 100%; metabolism in liver cytosol ([3]; NADPH 1 mmol/L): time-dependently metabolized; metabolite mainly produced in liver cytosol ([3]; NADPH): 2-(1-hydroxyethyl)naphtho[2,3-b]furan-4,9-dione (M1)
2 | inhibited | CC(=O)c1ccc(S(=O)(=O)NC(=O)NC2CCCCC2)cc1 [acetohexamide] | –
3 | inhibited | CCc1oc2ccccc2c1C(=O)c1cc(Br)c(O)c(Br)c1 [benzbromarone] | –
4 | inhibited | CN(C)CCCN1c2ccccc2Sc2ccc(Cl)cc21 [chlorpromazine] | –
5 | inhibited | C[C@H]1C[C@H]2[C@@H]3CCC4=CC(=O)C=C[C@]4(C)[C@@]3(F)[C@@H](O)C[C@]2(C)[C@@]1(O)C(=O)CCl [clobetasol] | –
6 | inhibited | Nc1ccc(S(=O)(=O)c2ccc(N)cc2)cc1 [dapsone] | –
7 | inhibited | C#C[C@]1(O)CC[C@H]2[C@@H]3CCc4cc(O)ccc4[C@H]3CC[C@@]21C [ethynyl estradiol] | –
8 | inhibited | O=C(O)c1ccccc1Nc1cccc(C(F)(F)F)c1 [flufenamic acid] | intracellular concentration of 2-acetylnaphtho[2,3-b]furan-4,9-dione in the presence of the metabolic inhibitor (A549 cells [5]): increased; intracellular concentration of 2-acetylnaphtho[2,3-b]furan-4,9-dione in the presence of the metabolic inhibitor (H460 cells [6]): increased
9 | inhibited | COc1ccc(Cl)cc1C(=O)NCCc1ccc(S(=O)(=O)NC(=O)NC2CCCCC2)cc1 [glibenclamide] | –
10 | inhibited | CCC1=C(C)CN(C(=O)NCCc2ccc(S(=O)(=O)NC(=O)N[C@H]3CC[C@H](C)CC3)cc2)C1=O [glimepiride] | –
11 | inhibited | CC(C(O)c1ccc(O)cc1)N1CCC(Cc2ccccc2)CC1 (centres unmarked) [ifenprodil] | –
12 | inhibited | CC(=O)N1CCN(c2ccc(OCC3COC(Cn4ccnc4)(c4ccc(Cl)cc4Cl)O3)cc2)CC1 (centres unmarked) [ketoconazole] | –
13 | inhibited | CCCCc1nc(Cl)c(CO)n1Cc1ccc(-c2ccccc2-c2nn[nH]n2)cc1 [losartan] | –
14 | inhibited | Cc1ccc(Cl)c(Nc2ccccc2C(=O)O)c1Cl [meclofenamic acid] | –
15 | – | CC(=O)O[C@]1(C(C)=O)CC[C@H]2[C@@H]3C[C@H](C)C4=CC(=O)CC[C@]4(C)[C@H]3CC[C@@]21C [medroxyprogesterone 17-acetate] | inhibition of the metabolism of 2-acetylnaphtho[2,3-b]furan-4,9-dione [7]: more strongly inhibited than quercitrin
16 | inhibited | Cc1cccc(Nc2ccccc2C(=O)O)c1C [mefenamic acid] | anti-tumor activity as a single agent (A549 cells [8]; 100 mg/kg oral once a day, 5 days on/2 off/5 on): no anti-tumor activity; anti-tumor activity of the combination with 2-acetylnaphtho[2,3-b]furan-4,9-dione vs the dione as a single agent (A549 cells [8]; 30 or 100 mg/kg dione and 100 mg/kg mefenamic acid oral once a day): significantly improved; intracellular concentration of 2-acetylnaphtho[2,3-b]furan-4,9-dione in the presence of the metabolic inhibitor (A549 cells [5]): increased; concentration of 2-acetylnaphtho[2,3-b]furan-4,9-dione in tumor, combination vs single agent group ([9]; 100 mg/kg dione with 300 mg/kg of mefenamic acid (FIG. 13)): higher; concentration of 2-acetylnaphtho[2,3-b]furan-4,9-dione in plasma, combination vs single agent administration ([9]; 100 mg/kg dione with 100 or 300 mg/kg mefenamic acid, 2, 6, 16 hours (FIG. 13)): higher; intracellular concentration of 2-acetylnaphtho[2,3-b]furan-4,9-dione in the presence of the metabolic inhibitor (H460 cells [6]): increased
17 | – | O=C1OC(c2ccc(O)cc2)(c2ccc(O)cc2)c2ccccc21 [phenolphthalein] | inhibition of the metabolism of 2-acetylnaphtho[2,3-b]furan-4,9-dione [7]: more strongly inhibited than quercitrin
18 | inhibited | OCc1cc(C(O)CNCCCCCCOCCCCc2ccccc2)ccc1O (centres unmarked) [salmeterol] | –
19 | inhibited | CC1=C(CC(=O)O)c2cc(F)ccc2/C1=C\c1ccc([S+](C)[O-])cc1 (centres unmarked) [sulindac] | concentration of 2-acetylnaphtho[2,3-b]furan-4,9-dione in plasma, combination vs single agent administration [10]: higher

Row | Compound | inhibition of the metabolism of 2-acetylnaphtho[2,3-b]furan-4,9-dione (residual amount vs control) [4] | other results
20 | CC1CC2C3CCC4=CC(=O)C=CC4(C)C3(F)C(=O)CC2(C)C1(O)C(=O)CCl (centres unmarked) [clobetasone] | inhibited | –

— patent publication US20200237711A1, “Compositions for Treating and/or Preventing Cancer” (Boston Biomedical, Inc., priority 2017, published 2020)
